# Values joined by “and” are separate entries in the source; they are usually repeats but may differ in a detail not shown here. Equal entries are not always repeated.
# Columns and labels:
# Klebsiella pneumoniae = assay: Checkerboard growth inhibition assay, Klebsiella pneumoniae; type: cell-based; settings: CM4 did not inhibit growth in the range used
# Description: (§1) Each combination was performed in triplicate.
# (§2) The interaction between two drugs was interpreted as synergistic if FICi was ≤0.5, indifferent if it was >0.5 and ≤4, and antagonistic if it was >4.
# Triple synergy is based on the pairwise synergies of the three antibacterials, FZ (a nitrofuran), DOC and Van. To start understanding the triple interaction, a series of experiments analysing pairwise combinations were carried out. […] In contrast, Klebsiella is susceptible to synergistic action of FZ (but not NF and NFZ) with DOC and is resistant to nitrofuran CM4.
# E. coli K12 = assay: Checkerboard / dose-response growth inhibition assay, E. coli K12; type: cell-based, Escherichia coli; settings: for FIC of the single component within the triple combination: Van+FZ+DOC at the lowest FICi point; for growth inhibition at the concentrations of the time-kill assay: FZ 1.25 μg/ml, alone or in combination
# Description: E. coli was grown in 2×YT medium (BD Difco) at 37° C. with shaking at 200 rpm. For preparation of exponential phase cells, fresh overnight culture was 100-fold diluted and incubated to reach the OD600nm of about 0.1-0.2. This cell suspension was then diluted to the desirable concentration depending on specific purposes.
# as §1, §2
# (§3) A growth inhibition assay was used where a series of concentrations of each antibacterial was applied combined with several concentrations of other two antibacterials (7 concentrations of Van, 8 of FZ and 9 of DOC). […] Starting from the highest concentrations, two-fold dilution series were assayed. E. coli cultures were seeded with ˜10^6 cells/mL and incubated overnight. Optical densities of each combination of concentrations were measured to assess growth and the inhibition relative to the no-antibiotic control were calculated. […] The synergistic interaction has been defined by the Fractional Inhibitory Concentration index (FICi); see the Definitions and Material and Methods sections. FICi represents the sum of the individual Fractional Inhibitory Concentrations (FIC). An FIC in turn is equal to the ratio of concentration that inhibits growth (>90%) in combination vs. alone. For pairwise combinations, the FICi below 0.5 (below 0.25 for each antibiotic) is considered synergistic; by extension for triple combination the FICi should be <0.75 (again below 0.25 for each antibiotic).
# Escherichia coli O157 = assay: Checkerboard growth inhibition assay, E. coli O157; type: cell-based; settings: for FIC of the single component within the triple combination: Van+FZ+DOC at the lowest FICi point
# Description: as §1, §2, §3
# [1] = system: various Gram-negative bacteria; assay: Inhibition of various Gram-negative bacteria by vancomycin alone and in combination; type: cell-based
# Description: as §1
# E. coli [2] = settings: cited from earlier work
# [3] = cited from earlier work
# E. coli [4] = assay: Growth inhibition of E. coli by vancomycin (strain not specified)
# [5] = with FZ and DOC, at the lowest FICi point
smiles,measurement,setting,value
"O=C(NN=Cc1ccc([N+](=O)[O-])o1)c1ccco1 [CM4, N′-[(5-nitrofuran-2-yl)methylidene]furan-2-carbohydrazide]",concentration range in which growth was not inhibited (up to),Klebsiella pneumoniae,> 256 µg/mL
"C[C@H](CCC(=O)[O-])[C@H]1CC[C@H]2[C@@H]3CC[C@@H]4C[C@H](O)CC[C@]4(C)[C@H]3C[C@H](O)[C@]12C.[Na+] [DOC, sodium; (4R)-4-[(3R,5R,8R,9S,10S,12S,13R,14S,17R)-3,12-dihydroxy-10,13-dimethyl-2,3,4,5,6,7,8,9,11,12,14,15,16,17-tetradecahydro-1H-cyclopenta[a]phenanthren-17-yl]pentanoate]",FIC of the single component within the triple combination,E. coli K12,0.0625
same,growth inhibition at the concentrations of the time-kill assay,"E. coli K12; strain K1508, DOC 2,500 μg/ml",sub-inhibitory
same,FIC of the single component within the triple combination,Escherichia coli O157,0.03125
"O=C1OCCN1/N=C/c1ccc([N+](=O)[O-])o1 [FZ, 3-[(E)-(5-nitrofuran-2-yl)methylideneamino]-1,3-oxazolidin-2-one]",growth inhibition at the concentrations of the time-kill assay,"E. coli K12; strain BW25113, Van 125 μg/ml",sub-inhibitory
same,growth inhibition at the concentrations of the time-kill assay,"E. coli K12; strain K1508, DOC 2,500 μg/ml",sub-inhibitory
same,FIC of the single component within the triple combination,Escherichia coli O157,0.0625
"CN[C@H](CC(C)C)C(=O)N[C@H]1C(=O)N[C@@H](CC(N)=O)C(=O)N[C@H]2C(=O)N[C@H]3C(=O)N[C@H](C(=O)N[C@H](C(=O)O)c4cc(O)cc(O)c4-c4cc3ccc4O)[C@H](O)c3ccc(c(Cl)c3)Oc3cc2cc(c3O[C@@H]2O[C@H](CO)[C@@H](O)[C@H](O)[C@H]2O[C@H]2C[C@](C)(N)[C@H](O)[C@H](C)O2)Oc2ccc(cc2Cl)[C@H]1O [Van, vancomycin]","concentration of Van required to inhibit, used alone",E. coli K12; 90% growth inhibition,500 µg/mL
same,FIC of the single component within the triple combination,E. coli K12,0.03125
same,growth inhibition at the concentrations of the time-kill assay,"E. coli K12; strain BW25113, Van 125 μg/ml",sub-inhibitory
same,"concentration of Van required to inhibit, in triple combination",E. coli K12; [5],20 µg/mL
same,"concentration of Van required to inhibit, used alone",Escherichia coli O157; 90% growth inhibition,250 µg/mL
same,FIC of the single component within the triple combination,Escherichia coli O157,0.03125
same,"concentration of Van required to inhibit, in triple combination",Escherichia coli O157; [5],16 µg/mL
same,"concentration of vancomycin required to inhibit, before lowering (alone)",[1]; some variation between strains,about 500 μg/mL
same,bactericidal concentration of vancomycin in the triple combination,[1]; with a nitrofuran and DOC,15.6 µg/mL
same,MIC when used on its own,E. coli [2],250 µg/mL
same,known nephrotoxic concentrations,[3]; depending on the mode and length of treatment,30 µg/mL and 20 µg/mL
same,concentration considered below nephrotoxic level (sub-toxic),"[3]; recommended therapeutic concentration, 6-day treatment",below 20 μg/mL
same,concentration required for E. coli growth inhibition when used on its own,E. coli [4],> 250 µg/mL
same,Van concentration in triple combination at several points in the graph,"E. coli [4]; E. coli K12 and O157, with FZ and DOC",16 µg/mL and 10 µg/mL

# From patent US20210330645A1, “ANTIBACTERIAL COMBINATIONS” (priority 2018, published 2021)
